From patent EP4763841A1, “PYRIDAZINONE COMPOUND AND USE THEREOF” (Xi'an Xintong Pharmaceutical Research Co., Ltd., priority 2023, dated 2025)
Marks after values point to notes of the source that are not given here.

What was measured:
THRβ = target: T1, THRβ (Homo sapiens, UniProt P10828); assay: HTRF test of agonist-induced SRC3-2 coactivator peptide recruitment to THRβ-LBD; format: biochemical
T1 sequence (P10828 217-461 limits assumed): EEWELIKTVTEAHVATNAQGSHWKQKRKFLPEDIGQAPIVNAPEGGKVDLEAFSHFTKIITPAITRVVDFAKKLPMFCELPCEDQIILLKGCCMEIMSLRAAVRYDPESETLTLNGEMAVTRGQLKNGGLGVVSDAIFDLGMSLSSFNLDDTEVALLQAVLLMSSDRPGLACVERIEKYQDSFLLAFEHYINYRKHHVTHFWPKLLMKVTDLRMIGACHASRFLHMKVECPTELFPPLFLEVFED
Description: 1. Experiment of binding of compounds to THRβ and THRα
Test principle: The effect of test compounds on THRβ and THRα was tested by using a method of HTRF. An MAb Anti GST-Eu cryptate antibody binds to GST-tagged THRα-LBD (or THRβ-LBD), while Streptavidin-XL665 binds to a biotin-labeled SRC3-2 coactivator peptide. […] At the same time, the resulting decrease in the distance between XL665-labeled SRC3-2 and an Eu-anti-GST antibody increases a THRFRET signal. The agonistic capacity at this target was assessed by the effect of compounds on the activity of THRα-LBD (THRβ-LBD) at different concentrations.
Test method: THRβ test procedures:
• (1) a 1×reaction solution was prepared. • (2) Preparation of compounds: the compound test starting concentration was 20 µM, 3-fold dilution was performed, 10 concentrations were set, and duplicate testing was set for each concentration. 100-fold dilution was performed in a 384-well Source plate to a corresponding solution with a final concentration, and then 200 nL of the solution was transferred to a 384-well reaction plate with Echo550 to be tested. 200 nL of 100% DMSO and a test article were respectively transferred to Min and Max wells. • (3) A 2×protein solution was prepared from the 1×reaction solution. • (4) A 4×SRC3-2 solution was prepared from the 1×reaction solution. • (5) A mixed solution of 4×GST-Eu cryptate and XL665 was prepared from the 1×reaction solution. • (6) 10 µl of the 2×protein solution was added to each well of the reaction plate, centrifugation was performed at 1000 rpm for 1 min, and incubation was performed at room temperature for 30 min. • (7) 5 µl of the 4×SRC3-2 solution was added to each well of the reaction plate, and centrifugation was performed at 1000 rpm for 1 min. • (8) 5 µL of the mixed solution of 4×GST-Eu cryptate and XL665 was added to each well of the reaction plate, centrifugation was performed at 1000 rpm for 1 min, and incubation was performed at 25°C. • (9) A fluorescence signal was read by using EnVision.

NASH model of B-DIO mice = assay: Efficacy test in NASH model of B-DIO mice (HFD + CCL4); format: in vivo; settings: for area proportion of lipid droplets in the liver (oil red O) compared with the model group G2: Day 26, result in words (FIG. 8); for liver fibrosis (Sirius red) compared with the model group G2: Day 26, result in words (FIG. 9)
Source text: An objective of this experiment was to evaluate the pharmacodynamics of compounds of the present invention by using an NASH model of B-DIO mice.
Five C57BL/6 mice on normal diet were assigned to an experimental group G1, and 25 B-DIO mice were randomly assigned to five experimental groups according to the body weight, with 5 mice in each group.
The day of grouping was Day-1, intraperitoneal injection was started on Day 0 in the groups G2-G6 for CCL4 modeling, the concentration of a modeling agent is 0.2 µl/g, the modeling frequency was twice a week, and administration was started on Day 0.
The body weight was measured twice a week after grouping. At the end of the experiment (Day 26), the mice were fasted for 4 h, and non-anticoagulated blood of the mice in the groups G1-G6 was collected and centrifuged, and a serum was taken for blood biochemical testing. Livers in the groups G1-G6 were collected and weighed, 20 mg of the liver was weighed for determination of TC and TG, and the remaining liver was placed in formalin for fixation for pathological observation.

[1] = Comparison of compound metabolites by human liver microsome incubation (LC-MS/MS); format: in vitro ADME; settings: 10 µM compound, human liver microsome 1.0 mg/mL, β-NADPH 1.0 mM, 37°C, 60 min
Description: The purpose of this experiment was to evaluate the comparison of the content of major metabolites of human liver microsome incubated compounds.
Sample treatment: a sample was precipitated with acetonitrile (ACN) containing 0.1% formic acid in a ratio of 1:2, and further centrifuged. A supernatant was dried with a nitrogen flow. A residue was reconstituted in […] of 10% ACN and 90% H2O containing 0.1% formic acid. […] of the reconstituted material was injected into an LC-MS/MS system for analysis.

[2] = liver, Day 26, 0.3 mg/kg I.G. Q.D., HFD+CCL4, mean±standard error
[3] = liver, Day 26, 1 mg/kg I.G. Q.D., HFD+CCL4, mean±standard error
[4] = liver, Day 26, 2 mg/kg I.G. Q.D., HFD+CCL4, mean±standard error
[5] = serum, Day 26, 1 mg/kg I.G. Q.D., HFD+CCL4, mean±standard error

[2H]C([2H])([2H])C(c1c(C)c(Oc2c(Cl)cc(-n3nc(CF)c(=O)[nH]c3=O)cc2Cl)n[nH]c1=O)C([2H])([2H])[2H] [Compound 6]
EC50 (THRβ; HTRF, starting concentration 20 µM, 3-fold dilution, 10 concentrations, duplicate, read-out: THRβ (EC50)): 6.5 nM
agonistic activity on THRβ compared with Resmetirom (THRβ; result in words): significantly better than that of Resmetirom
selectivity of agonistic effect for THRβ over THRα (THRβ; result in words): selective agonistic effects on THRβ
area proportion of lipid droplets in the liver (oil red O) compared with the model group G2 (NASH model of B-DIO mice; G4, 0.3 mg/kg): decreased significantly
liver fibrosis (Sirius red) compared with the model group G2 (NASH model of B-DIO mice; G4, 0.3 mg/kg): certain improvement effects on liver fibrosis
effects of reducing liver fat accumulation and inhibiting liver fibroplasia compared with Resmetirom (G3) (NASH model of B-DIO mice; G4-G6 (0.3, 1, 2 mg/kg) versus Resmetirom 3 mg/kg, result in words): better effects of reducing liver fat accumulation and inhibiting liver fibroplasia than Resmetirom
area proportion of lipid droplets in the liver (oil red O) compared with the model group G2 (NASH model of B-DIO mice; G5, 1 mg/kg): decreased significantly
liver fibrosis (Sirius red) compared with the model group G2 (NASH model of B-DIO mice; G5, 1 mg/kg): certain improvement effects on liver fibrosis
area proportion of lipid droplets in the liver (oil red O) compared with the model group G2 (NASH model of B-DIO mice; G6, 2 mg/kg): decreased significantly
liver fibrosis (Sirius red) compared with the model group G2 (NASH model of B-DIO mice; G6, 2 mg/kg): certain improvement effects on liver fibrosis
decrease of liver TC compared with the model group G2 (NASH model of B-DIO mice; group G4, 0.3 mg/kg, Day 26): 24.9%
decrease of liver TG compared with the model group G2 (NASH model of B-DIO mice; group G6, 2 mg/kg, Day 26): 35.9%
TC (NASH model of B-DIO mice; [2]): 46.76 ± 1.53 µmol/g
TG (NASH model of B-DIO mice; [2]): 59.02 ± 2.79 µmol/g
TC (NASH model of B-DIO mice; [3]): 46.35 ± 1.39 µmol/g
TG (NASH model of B-DIO mice; [3]): 54.34 ± 2.45 µmol/g
TC (NASH model of B-DIO mice; [4]): 44.99 ± 1.87 µmol/g
TG (NASH model of B-DIO mice; [4]): 54.34 ± 3.54 µmol/g
TG (NASH model of B-DIO mice; serum, Day 26, 0.3 mg/kg I.G. Q.D., HFD+CCL4, mean±standard error): 1.03 ± 0.06 mM
ALT (U/L) (NASH model of B-DIO mice; [5]): 1080.58±88.36 U/L
AST (U/L) (NASH model of B-DIO mice; [5]): 501.72±42.35* *** U/L
TG (NASH model of B-DIO mice; [5]): 1.06 ± 0.07 mM
TG (NASH model of B-DIO mice; serum, Day 26, 2 mg/kg I.G. Q.D., HFD+CCL4, mean±standard error): 1.06 ± 0.09 mM
Monooxidized metabolite percent content (%) [1]: 3.0%
Monooxidized metabolite percent content (%) ([1]; listed as compound 6): 3%
